Experimental data reported in patent US11617369B2, “Antimicrobial gallium compounds and methods” (The Board of Supervisors of Louisiana State University and …, priority 2018, dated 2023).
Entries after “also recorded” stand apart in the source; their conditions may differ. Values belong to the compound of their own block, whether it stands above or below them.

Columns and labels:
[1] = cited from earlier work
[2] = system: Streptococcus pneuomoniae; assay: Antibacterial activity by optical density of cultures with serial dilution of the compounds; type: cell-based; details: pH 5.9, 18 hours
Experimental: (§1) The antibacterial activities of three complexes against six oral bacteria at pH 5.9 were tested by measuring the optical density (OD, at 600 nm) of the cultures in […] of different bacteria with the presence of serial dilution of the compounds (10^−2M-7.81×10^−5M) after culture at 5% CO2 under 37° C. for 18 hours. The midpoint concentration (IC 50) was determined at the concentration that corresponds to 50% of maximum OD. The minimum inhibition concentration (MIC) was determined at the concentration that corresponds to 10% or less of OD of the control (without any gallium compound).

Pseudomonas aeruginosa = assay: as above; type: cell-based; details: pH 5.9, 18 hours
Experimental: as §1

Actinomyces naeslundii = assay: as above; type: cell-based; details: pH 5.9, 18 hours
Experimental: as §1

Streptococcus sobrinus = assay: as above; type: cell-based; details: pH 5.9, 18 hours
Experimental: as §1

Streptococcus mutans = assay: as above; type: cell-based; details: pH 5.9, 18 hours
Experimental: as §1

Lactobacillus casei = assay: as above; type: cell-based; details: pH 5.9, 18 hours
Experimental: as §1

[3] = Stability of aqueous gallium complex solutions with pH; type: physicochemical; details: solution of 2×10^−3 M
[4] = Gallium release from composite discs, spectrophotometric method; details: 15% chelate in the monomer; deionized water pH=7.0; 4 days (FIG. 13)
[5] = 37° C., 5% CO2, OD at 600 nm, read-out: Midpoint concentration (IC50)
[6] = 10% or less of OD of the control

SMILES: [Ga+3].[Ga+3].[O-2].[O-2].[O-2] [Ga2O3, gallium oxide]
- solubility in water (words) [1]: insoluble in water

SMILES: [Ga+3].[OH-].[OH-].[OH-] [Ga(OH)3]
- solubility in water (words) [1]: sparingly soluble; also recorded: low solubility in water
- Ksp=[Ga^3+][OH^−]^3 ([1]; in water): 3.28×10^−36

SMILES: [F][Ga]([F])[F] [GaF3, gallium trifluoride]
- solubility in water [1]: 15.8 µM
- solubility in water (words) [1]: sparingly soluble

- IC50 [2, 5]: 1880 µM
- Minimum Inhibition Concentration (MIC) [2, 6]: 5000 µM
- IC50 (Pseudomonas aeruginosa; [5]): > 1880 µM
- Minimum Inhibition Concentration (MIC) (Pseudomonas aeruginosa; [6]): 50 µM
- IC50 (Actinomyces naeslundii; [5]): 1880 µM
- Minimum Inhibition Concentration (MIC) (Actinomyces naeslundii; [6]): 2500 µM
- IC50 (Streptococcus sobrinus; [5]): 1250 µM
- Minimum Inhibition Concentration (MIC) (Streptococcus sobrinus; [6]): 5000 µM
- IC50 (Streptococcus mutans; [5]): 1250 µM
- Minimum Inhibition Concentration (MIC) (Streptococcus mutans; [6]): 2500 µM
- IC50 (Lactobacillus casei; [5]): > 5000 µM
- Minimum Inhibition Concentration (MIC) (Lactobacillus casei; [6]): >10^−2M
- pH up to which the solution is stable [3]: ≤ 5.9
SMILES: [F][Ga-2]([F])([F])([F])[F].[Na+].[Na+] [Na2GaF5]

SMILES: C=C(C)C(=O)OCCOc1ccc(C(C)(CCC(=O)NCCCCC(C(=O)[O-])N(CC(=O)[O-])CC(=O)O)c2ccc(OCCOC(=O)C(=C)C)cc2)cc1.F.[F-].[Ga+3] (stereo not shown) [ternary gallium fluoride chelate, monogallium(III) mono(2,2′-((5-(4,4-bis(4-(2-(methacryloyloxy)ethoxy)phenyl)pentanamido)-1-carboxylatopentyl)azanediyl)diacetate) monofluoride hydrofluoride]
- amount of gallium ion released compared with those without the chelate [4]: nearly double
